ChEMBL document CHEMBL1201862, “PubChem BioAssay data set” (2004)
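Exposure lasted 48 hours, with cells grown in 96-well plates and compounds tested at five concentrations. GI50 is the concentration that inhibits growth by half.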 Activity calls are given as the source filed them. Rule as the data show it: active = GI50 up to about 1.1 µM and inactive = higher.

Key:
Assay in all cases: NCI anticancer screen, dose series, 48 h
UACC-62 = test system: UACC-62
HOP-92 = test system: HOP-92
MCF7 = test system: MCF7
SF-539 = test system: SF-539
A549 = test system: A549
786-0 = test system: 786-0
Hs-578T = test system: Hs-578T
TK-10 = test system: TK-10
MDA-MB-231 = test system: MDA-MB-231
RXF 393 = test system: RXF 393
SK-MEL-28 = test system: SK-MEL-28
NCI-H23 = test system: NCI-H23
M14 = test system: M14
SN12C = test system: SN12C
HOP-62 = test system: HOP-62
LOX IMVI = test system: LOX IMVI
KM12 = test system: KM12
COLO 205 = test system: COLO 205
UO-31 = test system: UO-31
SW-620 = test system: SW-620
SNB-19 = test system: SNB-19
HCT-116 = test system: HCT-116
HL-60 = test system: HL-60
HT-29 = test system: HT-29
NCI/ADR-RES = test system: NCI/ADR-RES
U-251 = test system: U-251
SR = test system: SR
OVCAR-8 = test system: OVCAR-8
BT-549 = test system: BT-549
CAKI-1 = test system: CAKI-1
SF-268 = test system: SF-268
SF-295 = test system: SF-295
MDA-MB-435 = test system: MDA-MB-435
IGROV-1 = test system: IGROV-1
OVCAR-3 = test system: OVCAR-3
A498 = test system: A498
HCC 2998 = test system: HCC 2998
MDA-N = test system: MDA-N
OVCAR-5 = test system: OVCAR-5
K562 = test system: K562
ACHN = test system: ACHN
RPMI-8226 = test system: RPMI-8226
OVCAR-4 = test system: OVCAR-4
SNB-75 = test system: SNB-75
SK-MEL-5 = test system: SK-MEL-5
MOLT-4 = test system: MOLT-4
T47D = test system: T47D
NCI-H522 = test system: NCI-H522
NCI-H226 = test system: NCI-H226
CCRF-CEM = test system: CCRF-CEM
UACC-257 = test system: UACC-257
HCT-15 = test system: HCT-15
PC-3 = test system: PC-3
DU-145 = test system: DU-145
SK-OV-3 = test system: SK-OV-3
EKVX = test system: EKVX
NCI-H460 = test system: NCI-H460
SK-MEL-2 = test system: SK-MEL-2
Malme-3M = test system: Malme-3M

Cc1ccc(/N=C2/C(c3ccccc3)=C(SC3=C(c4ccccc4)/C(=N/c4ccc(C)cc4)c4ccccc43)c3ccccc32)cc1
GI50 (UACC-62): 16.7 µM (inactive)
GI50 (HOP-92): 12.1 µM (inactive)
GI50 (MCF7): 27.1 µM (inactive)
GI50 (SF-539): 6.21 µM (inactive)
GI50 (A549): 32.9 µM (inactive)
GI50 (786-0): 10.4 µM (inactive)
GI50 (Hs-578T): 9.98 µM (inactive)
GI50 (TK-10): 31.9 µM (inactive)
GI50 (MDA-MB-231): 12.6 µM (inactive)
GI50 (RXF 393): 12.4 µM (inactive)
GI50 (SK-MEL-28): > 39.7 µM (inactive)
GI50 (NCI-H23): 14 µM (inactive)
GI50 (M14): 59.8 µM (inactive)
GI50 (SN12C): 20.9 µM (inactive)
GI50 (HOP-62): 10 µM (inactive)
GI50 (LOX IMVI): 67.6 µM (inactive)
GI50 (KM12): 39.4 µM (inactive)
GI50 (COLO 205): > 100 µM (inactive)
GI50 (UO-31): 15.6 µM (inactive)
GI50 (SW-620): > 100 µM (inactive)
GI50 (SNB-19): 6.31 µM (inactive)
GI50 (HCT-116): 20.9 µM (inactive)
GI50 (HL-60): 7.87 µM (inactive)
GI50 (HT-29): 24.6 µM (inactive)
GI50 (NCI/ADR-RES): 22.1 µM (inactive)
GI50 (U-251): 15.7 µM (inactive)
GI50 (SR): > 100 µM (inactive)
GI50 (OVCAR-8): 9.59 µM (inactive)
GI50 (BT-549): 23.7 µM (inactive)
GI50 (CAKI-1): 15.2 µM (inactive)
GI50 (SF-268): 6.44 µM (inactive)
GI50 (SF-295): 12.5 µM (inactive)
GI50 (MDA-MB-435): > 100 µM (inactive)
GI50 (IGROV-1): 17.1 µM (inactive)
GI50 (OVCAR-3): 27.5 µM (inactive)
GI50 (A498): 15.2 µM (inactive)
GI50 (HCC 2998): > 37.9 µM (inactive)
GI50 (MDA-N): 97.7 µM (inactive)
GI50 (OVCAR-5): 39 µM (inactive)
GI50 (K562): 32.4 µM (inactive)
GI50 (ACHN): 3.38 µM (inactive)
GI50 (RPMI-8226): 84.7 µM (inactive)
GI50 (OVCAR-4): 4.09 µM (inactive)
GI50 (SNB-75): 8.63 µM (inactive)
GI50 (SK-MEL-5): 19.4 µM (inactive)
GI50 (MOLT-4): > 87.7 µM (inactive)
GI50 (T47D): 33.3 µM (inactive)
GI50 (NCI-H522): 34.6 µM (inactive)
GI50 (NCI-H226): 24.4 µM (inactive)
GI50 (CCRF-CEM): > 100 µM (inactive)
GI50 (UACC-257): 23.4 µM (inactive)
GI50 (HCT-15): 17.7 µM
GI50 (PC-3): 55 µM (inactive)
GI50 (DU-145): 32.1 µM (inactive)
GI50 (SK-OV-3): 15 µM (inactive)
GI50 (EKVX): 19.1 µM (inactive)
GI50 (NCI-H460): 8.91 µM (inactive)
GI50 (SK-MEL-2): > 39.1 µM (inactive)

Nc1nccc(NCC2(CO)CC(OCc3ccccc3)C2)n1 (stereo not drawn)
GI50 (UACC-62): > 100 µM (inactive)
GI50 (HOP-92): 56.9 µM (inactive)
GI50 (MCF7): > 100 µM (inactive)
GI50 (SF-539): > 100 µM (inactive)
GI50 (A549): > 100 µM (inactive)
GI50 (786-0): > 100 µM (inactive)
GI50 (Hs-578T): > 100 µM (inactive)
GI50 (Malme-3M): > 100 µM (inactive)
GI50 (MDA-MB-231): > 100 µM (inactive)
GI50 (RXF 393): > 100 µM (inactive)
GI50 (SK-MEL-28): > 100 µM (inactive)
GI50 (NCI-H23): > 100 µM (inactive)
GI50 (SN12C): > 100 µM (inactive)
GI50 (HOP-62): > 100 µM (inactive)
GI50 (LOX IMVI): > 100 µM (inactive)
GI50 (KM12): > 100 µM (inactive)
GI50 (COLO 205): 99.1 µM (inactive)
GI50 (UO-31): 84.5 µM (inactive)
GI50 (SW-620): > 100 µM (inactive)
GI50 (HCT-116): 90.4 µM (inactive)
GI50 (HL-60): > 100 µM (inactive)
GI50 (HT-29): > 100 µM (inactive)
GI50 (NCI/ADR-RES): > 100 µM (inactive)
GI50 (U-251): > 100 µM (inactive)
GI50 (SR): > 100 µM (inactive)
GI50 (OVCAR-8): > 100 µM (inactive)
GI50 (BT-549): > 100 µM (inactive)
GI50 (CAKI-1): > 100 µM (inactive)
GI50 (SF-268): > 10 µM (inactive)
GI50 (SF-295): > 100 µM (inactive)
GI50 (MDA-MB-435): > 100 µM (inactive)
GI50 (IGROV-1): > 100 µM (inactive)
GI50 (OVCAR-3): 87.5 µM (inactive)
GI50 (A498): > 100 µM (inactive)
GI50 (HCC 2998): > 100 µM (inactive)
GI50 (MDA-N): > 100 µM (inactive)
GI50 (OVCAR-5): > 100 µM (inactive)
GI50 (K562): 79.1 µM (inactive)
GI50 (ACHN): > 100 µM (inactive)
GI50 (RPMI-8226): > 100 µM (inactive)
GI50 (OVCAR-4): 48.3 µM (inactive)
GI50 (SNB-75): > 100 µM (inactive)
GI50 (SK-MEL-5): 35.8 µM (inactive)
GI50 (MOLT-4): > 100 µM (inactive)
GI50 (T47D): 7.98 µM (inactive)
GI50 (NCI-H522): 98.9 µM (inactive)
GI50 (NCI-H226): > 100 µM (inactive)
GI50 (CCRF-CEM): > 100 µM (inactive)
GI50 (UACC-257): > 100 µM (inactive)
GI50 (HCT-15): > 100 µM
GI50 (PC-3): > 100 µM (inactive)
GI50 (DU-145): 79.4 µM (inactive)
GI50 (EKVX): 77.4 µM (inactive)
GI50 (NCI-H460): > 100 µM (inactive)
GI50 (SK-MEL-2): > 100 µM (inactive)
